pIC50: −log10 of the molar value. The source made the active and inactive calls. The calls are words filed in the database; no cut-off is given here.
Legend:
[1] = test system: MCF7; assay: Cytotoxicity against human MCF7 cells assessed as cell growth inhibition measured after 24 hrs by MTT assay; type: functional, cell-based; details: MCF7, 24 h
[2] = test system: HepG2; assay: Cell cycle arrest in human HepG2 cells assessed as accumulation at S phase at 4 uM measured after 24 hrs by RNaseA/propidium iodide staining based flow cytometry (reference value: 24.3 %); type: functional
[3] = test system: HepG2; assay: Induction of apoptosis in human HepG2 cells assessed as necrotic cells at 8 uM measured after 24 hrs by annexinV-FITC/propidium iodide staining based flow cytometry (reference value: 0.77 %); type: functional
[4] = test system: HepG2; assay: Induction of apoptosis in human HepG2 cells assessed as discernible cell rounding at 4 to 8 uM by fluorescent microscopic analysis; type: functional, cell-based; details: dose 4-8 µM
[5] = test system: HepG2; assay: Cell cycle arrest in human HepG2 cells assessed as accumulation at G2/M phase at 4 uM measured after 24 hrs by RNaseA/propidium iodide staining based flow cytometry (reference value: 22.9 %); type: functional
[6] = test system: HepG2; assay: Induction of apoptosis in human HepG2 cells assessed as necrotic cells at 4 uM measured after 24 hrs by annexinV-FITC/propidium iodide staining based flow cytometry (reference value: 0.77 %); type: functional
[7] = test system: A549; assay: Cytotoxicity against human A549 cells assessed as cell growth inhibition measured after 24 hrs by MTT assay; type: functional, cell-based; details: A549, 24 h
[8] = test system: HepG2; assay: Cell cycle arrest in human HepG2 cells assessed as accumulation at S phase at 8 uM measured after 24 hrs by RNaseA/propidium iodide staining based flow cytometry (reference value: 24.3 %); type: functional
[9] = test system: L02; assay: Cytotoxicity against human L02 cells assessed as cell growth inhibition measured after 24 hrs by MTT assay; type: cell-based; details: L02, 24 h
[10] = test system: HepG2; assay: Induction of apoptosis in human HepG2 cells assessed as early apoptotic cells at 4 uM measured after 24 hrs by annexinV-FITC/propidium iodide staining based flow cytometry (reference value: 2.03 %); type: functional
[11] = test system: HepG2; assay: Cell cycle arrest in human HepG2 cells assessed as accumulation at G0/G1 phase at 8 uM measured after 24 hrs by RNaseA/propidium iodide staining based flow cytometry (reference value: 49.3 %); type: functional
[12] = test system: HepG2; assay: Induction of apoptosis in human HepG2 cells assessed as late apoptotic cells at 4 uM measured after 24 hrs by annexinV-FITC/propidium iodide staining based flow cytometry (reference value: 5.45 %); type: functional
[13] = test system: HepG2; assay: Induction of apoptosis in human HepG2 cells assessed as cell shrinkage at 4 to 8 uM by fluorescent microscopic analysis; type: functional, cell-based; details: dose 4-8 µM
[14] = test system: HepG2; assay: Induction of apoptosis in human HepG2 cells assessed as live cells at 4 uM measured after 24 hrs by annexinV-FITC/propidium iodide staining based flow cytometry (reference value: 91.7 %); type: functional
[15] = test system: HepG2; assay: Cell cycle arrest in human HepG2 cells assessed as accumulation at G0/G1 phase at 4 uM measured after 24 hrs by RNaseA/propidium iodide staining based flow cytometry (reference value: 49.3 %); type: functional
[16] = test system: HepG2; assay: Cytotoxicity against human HepG2 cells assessed as cell growth inhibition measured after 24 hrs by MTT assay; type: functional, cell-based; details: HepG2, 24 h
[17] = test system: HepG2; assay: Induction of apoptosis in human HepG2 cells assessed as early apoptotic cells at 8 uM measured after 24 hrs by annexinV-FITC/propidium iodide staining based flow cytometry (reference value: 2.03 %); type: functional
[18] = test system: HepG2; assay: Induction of apoptosis in human HepG2 cells assessed as late apoptotic cells at 8 uM measured after 24 hrs by annexinV-FITC/propidium iodide staining based flow cytometry (reference value: 5.45 %); type: functional
[19] = test system: HepG2; assay: Induction of apoptosis in human HepG2 cells assessed as formation of apoptotic bodies at 4 to 8 uM by fluorescent microscopic analysis; type: functional, cell-based; details: dose 4-8 µM
[20] = test system: HepG2; assay: Induction of apoptosis in human HepG2 cells assessed as membrane blebbing at 4 to 8 uM by fluorescent microscopic analysis; type: functional, cell-based; details: dose 4-8 µM
[21] = test system: HepG2; assay: Induction of apoptosis in human HepG2 cells assessed as live cells at 8 uM measured after 24 hrs by annexinV-FITC/propidium iodide staining based flow cytometry (reference value: 91.7 %); type: functional
[22] = test system: HepG2; assay: Cell cycle arrest in human HepG2 cells assessed as accumulation at G2/M phase at 8 uM measured after 24 hrs by RNaseA/propidium iodide staining based flow cytometry (reference value: 22.9 %); type: functional

`C[C@@H]1CC[C@@]2(OC1)O[C@H]1C[C@H]3[C@@H]4CC=C5C[C@@H](OC(=O)CCC(=O)N6CCNCC6)CC[C@]5(C)[C@H]4CC[C@]3(C)[C@H]1[C@@H]2C` was tested. Which pIC50 [1] did it give?
Its pIC50 is 5.55.

What about the Activity [2] of the same compound?
The Activity was 21.5%.

What about the Activity [3] of the same compound?
The Activity was 0.18%.

What about the Activity [4] of the same compound?
The Activity was “Active”.

And the Activity [5]?
Its Activity is 18.6%.

What about the Activity [6] of the same compound?
The Activity was 0.093%.

What about the pIC50 [7] of the same compound?
The pIC50 was 5.62.

What about the Activity [8] of the same compound?
The Activity was 17.5%.

And the pIC50 [9]?
The pIC50 was 4.73.

And the Activity [10]?
The Activity was 6.08%.

What about the Activity [11] of the same compound?
Its Activity is 64.2%.

And the Activity [12]?
The Activity was 5.12%.

What about the Activity [13] of the same compound?
Its Activity is “Active”.

And the Activity [14]?
Its Activity is 88.7%.

What about the Activity [15] of the same compound?
The Activity was 57.4%.

And the pIC50 [16]?
Its pIC50 is 5.72.

What about the Activity [17] of the same compound?
Its Activity is 13.2%.

What about the Activity [18] of the same compound?
Its Activity is 7.85%.

What about the Activity [19] of the same compound?
Its Activity is “Active”.

And the Activity [20]?
Its Activity is “Active”.

What about the Activity [21] of the same compound?
Its Activity is 78.7%.

And the Activity [22]?
The Activity was 17.3%.

— ChEMBL document CHEMBL4811221, “Diosgenin Derivatives as Potential Antitumor Agents: Synthesis, Cytotoxicity, and Mechanism of Action” (J Nat Prod, 2021)
